Tests used:
Details in all cases: average where tested multiple times
BCAT2 [1] = biological target: T1, BCAT2 (Homo sapiens, UniProt O15382); assay: BCAT2 in vitro enzyme inhibition assay (resazurin/diaphorase-coupled fluorescence); format: biochemical
T1 sequence (O15382 28-392): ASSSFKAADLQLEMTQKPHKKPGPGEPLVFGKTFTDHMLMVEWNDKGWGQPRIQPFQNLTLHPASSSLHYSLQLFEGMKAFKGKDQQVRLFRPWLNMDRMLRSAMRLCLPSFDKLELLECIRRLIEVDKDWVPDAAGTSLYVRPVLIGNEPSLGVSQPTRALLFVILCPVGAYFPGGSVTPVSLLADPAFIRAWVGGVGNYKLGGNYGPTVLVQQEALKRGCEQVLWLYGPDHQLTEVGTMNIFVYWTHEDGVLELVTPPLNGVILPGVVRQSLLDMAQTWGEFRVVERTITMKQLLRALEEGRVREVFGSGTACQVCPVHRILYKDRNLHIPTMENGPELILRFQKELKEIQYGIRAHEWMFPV
How it was run: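 Coupled fluorescence readout: glutamate formed from L-leucine/α-ketoglutarate transamination drives GDH/NAD/diaphorase reduction of resazurin (Ex 540/Em 590). Human BCAT2 was first exposed 1 h at room temperature to compound, top final 100 μM in 3-fold, 10-point series; substrate reaction ran 1 h before SDS quench, in technical duplicate with DMSO max and enzyme-free min controls.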

BCAT2 [2] = biological target: T1, BCAT2; assay: BCAT2 in vitro cell inhibition using engineered A549 cells (KMV cell assay, 13C6-KMV by LC-MS/MS); format: cell-based; parameters: The result was an engineered A549 cell line that expressed endogenous BCAT2; endogenous in cells; host or cells: A549 cells with MUT and BCAT1 knocked out by CRISPR/CAS9; key to BCAT2 Cell Inhibition: A: less than or equal to 0.100 μM; B: greater than 0.100 and less than or equal to 0.500 μM; C: greater than 0.500 and less than or equal to 1.000 μM; d: greater than 1.000 μM; E: no fit
hBCAT1 = biological target: T2, hBCAT1 (Homo sapiens, UniProt P54687); assay: BCAT1 in vitro enzyme inhibition assay (resazurin/diaphorase-coupled fluorescence); format: biochemical
T2 sequence (P54687 1-386): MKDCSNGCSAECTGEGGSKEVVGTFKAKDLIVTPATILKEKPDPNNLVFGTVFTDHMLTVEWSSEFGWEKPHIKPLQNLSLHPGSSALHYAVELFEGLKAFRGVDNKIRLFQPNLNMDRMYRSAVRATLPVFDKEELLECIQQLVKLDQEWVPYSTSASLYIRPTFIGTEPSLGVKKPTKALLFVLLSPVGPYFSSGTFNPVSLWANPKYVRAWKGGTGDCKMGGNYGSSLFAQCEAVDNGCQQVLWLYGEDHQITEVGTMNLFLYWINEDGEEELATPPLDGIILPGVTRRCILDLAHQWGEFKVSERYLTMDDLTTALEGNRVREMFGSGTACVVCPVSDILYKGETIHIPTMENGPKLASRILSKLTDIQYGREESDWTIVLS
How it was run: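 Human BCAT1 activity read by resazurin/diaphorase-coupled fluorescence. Compounds added from 50× DMSO stocks at 1:50, giving 10-point 3-fold titrations from 100 μM top final concentration. Run in technical duplicate; repeat tests averaged.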

Row | Structure (SMILES) | IC50 (BCAT2 [1]) [µM] | IC50 (BCAT2 [2]) [µM] | IC50 (hBCAT1) [µM] | BCAT2 Cell Inhibition (BCAT2 [2])
1 | O=C(N[C@H]1CCC[C@@H](n2c(-c3ccccn3)nc3cnc(-n4ccnn4)cc32)C1)c1ncc(Br)s1 [Example 32, 5-bromo-N-((1S,3R)-3-(2-(pyridin-2-yl)-6-(1H-1,2,3-triazol-1-yl)-1H-imidazo[4,5-c]pyridin-1-yl)cyclohexyl)thiazole-2-carboxamide] | 0.1 to 0.5 | > 1 | 1 to 5 | 
2 | O=C(N[C@H]1CCC[C@@H](n2c(-c3ccccn3)nc3cnc(-n4ccnn4)cc32)C1)c1ncc(C(F)F)s1 [Example 34, 5-(difluoromethyl)-N-((1S,3R)-3-(2-(pyridin-2-yl)-6-(1H-1,2,3-triazol-1-yl)-1H-imidazo[4,5-c]pyridin-1-yl)cyclohexyl)thiazole-2-carboxamide] | 0.1 to 0.5 |  | > 5 | E
3 | O=C(N[C@H]1CCC[C@@H](n2c(-c3ncccc3F)nc3cnc(-n4ccnn4)cc32)C1)c1ncc(C(F)F)s1 [Example 37, 5-(difluoromethyl)-N-((1S,3R)-3-(2-(3-fluoropyridin-2-yl)-6-(1H-1,2,3-triazol-1-yl)-1H-imidazo[4,5-c]pyridin-1-yl)cyclohexyl)thiazole-2-carboxamide] | 0.1 to 0.5 | > 1 | 1 to 5 | 
4 | O=C(N[C@H]1CCC[C@@H](n2c(-c3ccccc3F)nc3cnc(-n4ccnn4)cc32)C1)c1ncc(C(F)F)s1 [Example 38, 5-(difluoromethyl)-N-((1S,3R)-3-(2-(2-fluorophenyl)-6-(1H-1,2,3-triazol-1-yl)-1H-imidazo[4,5-c]pyridin-1-yl)cyclohexyl)thiazole-2-carboxamide] | ≤ 0.1 | 0.1 to 0.5 | 1 to 5 | 
5 | Cc1cnn(-c2cc3c(cn2)nc(-c2ccccn2)n3[C@@H]2CCC[C@H](NC(=O)c3ccc(Br)s3)C2)n1 [Example 39, 5-bromo-N-((1S,3R)-3-(6-(4-methyl-2H-1,2,3-triazol-2-yl)-2-(pyridin-2-yl)-1H-imidazo[4,5-c]pyridin-1-yl)cyclohexyl)thiophene-2-carboxamide] | ≤ 0.1 | ≤ 0.1 | < 0.5 | 

The remaining lines, values ahead:

Row | IC50 (BCAT2 [1]) [µM] | IC50 (BCAT2 [2]) [µM] | IC50 (hBCAT1) [µM] | BCAT2 Cell Inhibition (BCAT2 [2]) | Structure (SMILES)
6 | ≤ 0.1 | 0.5 to 1 | 1 to 5 |  | O=C(N[C@H]1CCC[C@@H](n2c(-c3ccccn3)nc3cnc(-n4cccn4)cc32)C1)c1ccc(Br)s1 [Example 30, N-((1S,3R)-3-(6-(1H-pyrazol-1-yl)-2-(pyridin-2-yl)-1H-imidazo[4,5-c]pyridin-1-yl)cyclohexyl)-5-bromothiophene-2-carboxamide]
7 | ≤ 0.1 | ≤ 0.1 | < 0.5 |  | Cc1coc(-c2cc3c(cn2)nc(-c2ccccn2)n3[C@@H]2CCC[C@H](NC(=O)c3ccc(Br)s3)C2)n1 [Example 31, 5-bromo-N-((1S,3R)-3-(6-(4-methyloxazol-2-yl)-2-(pyridin-2-yl)-1H-imidazo[4,5-c]pyridin-1-yl)cyclohexyl)thiophene-2-carboxamide]
8 | ≤ 0.1 | 0.5 to 1 | 1 to 5 |  | C#Cc1cnc(C(=O)N[C@H]2CCC[C@@H](n3c(-c4ccccn4)nc4cnc(-n5ccnn5)cc43)C2)s1 [Example 33, 5-ethynyl-N-((1S,3R)-3-(2-(pyridin-2-yl)-6-(1H-1,2,3-triazol-1-yl)-1H-imidazo[4,5-c]pyridin-1-yl)cyclohexyl)thiazole-2-carboxamide]
9 | ≤ 0.1 | 0.5 to 1 | 1 to 5 |  | O=C(N[C@H]1CCC[C@@H](n2c(-c3ncccc3F)nc3cnc(-n4ccnn4)cc32)C1)c1ncc(Br)s1 [Example 35, 5-bromo-N-((1S,3R)-3-(2-(3-fluoropyridin-2-yl)-6-(1H-1,2,3-triazol-1-yl)-1H-imidazo[4,5-c]pyridin-1-yl)cyclohexyl)thiazole-2-carboxamide]
10 | ≤ 0.1 | 0.1 to 0.5 | 0.5 to 1 |  | C#Cc1cnc(C(=O)N[C@H]2CCC[C@@H](n3c(-c4ncccc4F)nc4cnc(-n5ccnn5)cc43)C2)s1 [Example 36, 5-ethynyl-N-((1S,3R)-3-(2-(3-fluoropyridin-2-yl)-6-(1H-1,2,3-triazol-1-yl)-1H-imidazo[4,5-c]pyridin-1-yl)cyclohexyl)thiazole-2-carboxamide]

Source: patent US20260159512A1, “BCAT2 INHIBITORS” (AGIOS PHARMACEUTICALS, INC., priority 2021, published 2026)
